Here are results for one compound from patent publication US8841311B2, “Sulphone-substituted quinazoline derivatives as immuno-modulators, their preparation and use as medicaments” (Bayer Intellectual Property GmbH, priority 2008, dated 2014).

Each structure is given as a SMILES string.

The assay relates to TLR-induced TNF-α release in human peripheral blood mononuclear cells (PBMC). Put plainly: TLR-induced cytokine release in human PBMC (TNF-alpha, ELISA). The class given is cell-based. The note with it: human PBMC stimulated with TLR ligand, 18 hours incubation. The method, then: TLR-Induced Cytokine Release in Human “Peripheral Blood Mononuclear Cells” (PBMC)
PBMCs isolated from human whole blood are stimulated using a TLR ligand.
The cytokine determination is carried out by means of ELISA kits; a proliferation/cell metabolism determination is carried out using Alamar Blue.
For the cell preparation, about 200 ml of blood are treated with an anticoagulant (e.g. citrate Monovettes). Per Leucosep tube, 15 ml of Histopaque (room temperature, RT) are poured in and pressed downwards through the frit employed by brief initial centrifugation (one minute at 1000×g, RT). 20 ml of blood are added to the tubes prepared in this way and centrifuged at 800×g for 15 minutes (RT). After centrifugation, the following layered arrangement results from the top to the bottom: plasma—PBMC Histopaque—filter disc—Histopaque—erythrocytes and granulocytes. The supernatant plasma is aspirated. The PBMC are transferred together with the underlying Histopaque to a new 50 ml tube, the contents of two Leucosep tubes always being added to one 50 ml tube. The 50 ml tubes are then filled to 50 ml with PBS. This cell suspension is centrifuged at 300×g (RT) for 10 minutes. The liquid supernatant is tipped off and the cell pellet is resuspended with a little PBS and subsequently filled to 50 ml with PBS. […] The metabolic activity of the treated cells is determined with the aid of Alamar Blue.
In general terms: In an ELISA, binding on a coated surface is turned into a signal by an enzyme label.

Broadly, the IC50 is the concentration that gives 50% inhibition. A higher IC50 goes with a need for much substance. `COc1cc2c(NC(C)C)ncnc2cc1OCc1cccc(S(C)(=O)=O)c1` [Example 2.1, Isopropyl[7-(3-methanesulphonylbenzyloxy)-6-methoxyquinazolin-4-yl]amine] yielded an IC50 of 3000 nM.
